Entries after “also recorded” stand apart in the source; their conditions may differ.
Assays:
[1] = test system: CD31 and Endomucin expression; experiment: 30 and 45 day prevention study: blood vessels in the distal femur (CD31 and Endomucin expression); type: in vivo, BALB/c mice
Procedure: (§1) The efficacy of LLP2A-Ale and hPTH (1-34) was evaluated over a 30 and 45 day study using a mouse model of glucocorticoid-induced osteonecrosis. Seven week-old male BALB/c mice were randomized into Placebo group (fresh water), glucocorticoid only (4 mg/L dexamethasone (Dex) in drinking water), Dex+250 μg/kg LLP2A-Ale, Dex+500 μg/kg LLP2A-Ale, or Dex+40 μg/kg hPTH (administered five times a week) for 30 or 45 days. At day 30 or 45, the mice were sacrificed. Study endpoints included histological evidence of osteonecrosis, bone mass, and prevalent blood vessels (CD31 and Endomucin expression) in the distal femur, and was performed as set forth in Example 2. Non-parametric Kruskal-Wallis tests were used to determine the differences between the groups.

[2] = test system: dexamethasone-treated mice; experiment: Histological evaluation (H&E) of femoral epiphyses, 90 day model; type: in vivo, BALB/c mice; details: Dex 4 mg/L in drinking water, day 90, femoral epiphyses (FIG. 9C-9F)
Procedure: FIG. 9A-9F. Histological evaluation of femurs from placebo- or dexamethasone-treated mice. Mice were treated with placebo (PL) or dexamethasone alone (Dex) as described above for FIG. 7. All mice were euthanized at day 90. Right and left distal femurs were fixed in 10% neutral buffer formalin and decalcified. The specimens were dehydrated, embedded in paraffin, cut into 5 micron sections and H&E stained. The sections were scored by two experienced histologists and then a consensus reading was performed by two additional histologists. FIG. 9A-9B: 4× (A) and 20× (B) magnifications of representative proximal femoral epiphyses in mice treated with placebo. (C) 4× magnification of a representative proximal femoral epiphyses in mice treated with dexamethasone (Dex) alone. FIGS. 9D, 9E, and 9F: 20× magnifications of representative proximal femoral epiphyses in mice treated with dexamethasone (Dex) alone.
FIG. 11A-11F. Histological evaluation of femurs from LLP2A-Ale-treated mice. Mice were treated with Dex+250 μg/kg LLP2A-Ale as described above for FIG. 7. All mice were euthanized at day 90. Right and left distal femurs were fixed in 10% neutral buffer formalin and decalcified. The specimens were dehydrated, embedded in paraffin, cut into 5 micron sections and H&E stained. The sections were scored by two experienced histologists and then a consensus reading was performed by two additional histologists. (A, D): 4× magnifications of representative proximal femoral epiphyses in mice treated with Dex+LLP2A-Ale. (B, C, E, F): 20× magnifications of representative proximal femoral epiphyses in mice treated with Dex+LLP2A-Ale.
(§2) Both the right and left distal femurs were fixed in 10% neutral buffered formalin and were shaken for 3 days, then decalcified in 5% EDTA until the bones were fully decalcified. The specimens were then processed in ascending concentrations of ethanol and embedded in paraffin. Tissue sections were cut into 5 microns sections, stained with hematoxylin and eosin and evaluated for the presence of osteonecrosis by bright field microscopy at 20× magnification. Experimental methods are also described in Mohan et al., Calif Tissue Int (2016) doi:10.1007/s00223-016-0195-6, which is incorporated herein by reference in its entirety for all purposes. Osteonecrosis was detected using modified criteria reported by Yang el al., (a mouse model for glucocorticoid-induced osteonecrosis: Effect of a steroid holiday. J Orthop Res. 2009; 27:169-75) which defines osteonecrosis as requiring all of the following changes: (1) empty lacunae, (2) pyknotic osteocyte nuclei in areas of empty lacunae and necrosis of adjacent bone marrow, (3) presence of excessive fat cells in the bone marrow, (4) cartilage degradation and (5) presence of fibrin thrombi in the blood vessels. In addition, trabecular bone volume, adipose volume, sinusoid volume and osteoblast surface at the distal femoral epiphyses were measured. Empty lacunae density was calculated by empty lacunae/total osteocytes within the entire distal femoral epiphysis region for each sample. Each section was scored by two experienced histologists, then a consensus reading was performed by two additional experienced histologists.

[3] = test system: dexamethasone-treated mice; experiment: Empty lacunae density in distal femoral epiphysis, 90 day model; type: in vivo, BALB/c mice; details: distal femoral epiphysis, day 90; Dex only vs LLP2A-Ale 250, 500, 750 μg/kg groups (FIG. 8A-B)
Procedure: FIG. 8A-8B. Empty lacunae density of femurs from in dexamethasone-treated mice. Mice treated with placebo (PL), dexamethasone alone (Dex), Dex+250 μg/kg LLP2A-Ale, Dex+500 μg/kg LLP2A-Ale, or Dex+750 μg/kg LLP2A-Ale as described above for FIG. 7 were assessed for empty lacunae density within the distal femoral epiphysis region. Empty lacunae density was calculated by determining the number of empty lacunae in the entire distal femoral epiphysis region divided by the total number of osteocytes within the same region for each specimen. In the Dex only group, 75% of the samples had 10% or more empty lacunae, as compared to 44-62% of the samples in LLP2A-Ale-treated groups. A higher number of LLP2A-Ale 250 μg/kg, LLP2A-Ale 500 μg/kg, and LLP2A-Ale 750 μg/kg—treated samples had less than 10% empty lacunae as compared to Dex only treatment.
as §2, with “Experimental methods are also described in Mohan et al., Calif Tissue Int (2016) doi:10.1007/s00223-016-0195-6, which is incorporated herein by reference in its entirety for all purposes.” left out, “Each section was scored by two experienced histologists, then a consensus reading was performed by two additional experienced histologists.” left out

[4] = Body weight, 90 day model; type: in vivo, BALB/c mice; details: all Dex treated animals vs placebo, day 7 up to day 90 (p<0.05)
Procedure: All the mice were euthanized at day 90. The body weights of all the study animals were assessed each week. If the study animals had 10% loss of body weight compared to the previous week, the dose of dexamethasone was reduced to 2 mg/L, until weight gain was observed. All of the animals were injected with calcein (30 mg/kg) and alizarin red (20 mg/kg) at 7 and 2 days before euthanization.

[5] = test system: dexamethasone-treated mice; experiment: 30 and 45 day prevention study: trabecular bone histology of distal femur epiphyses; type: in vivo, BALB/c mice
Procedure: as §1

[6] = test system: dexamethasone-treated mice; experiment: 30 and 45 day prevention study: incidence of glucocorticoid-induced osteonecrosis; type: in vivo, BALB/c mice; details: for Incidence of glucocorticoid-induced osteonecrosis: Dex alone 4 mg/L in drinking water; for Prevalence/incidence of glucocorticoid-induced osteonecrosis lesions (in words): 30 or 45 days, Dex + LLP2A-Ale 250 or 500 μg/kg, or Dex + 40 μg/kg hPTH five times a week (FIG. 12)
Procedure: FIG. 12. Reduction in incidence of glucocorticoid-induced osteonecrosis in mice treated with recombinant LLP2A-Ale. Mice were randomized into placebo (PL) (fresh water), dexamethasone (Dex) 4 mg/l in drinking water, Dex+250 μg/kg LLP2A-Ale, Dex+500 μg/kg LLP2A-Ale, or Dex+40 μg/kg hPTH (1-34) groups for a 30 day treatment period or a 45 day treatment period. The incidence of Dex-induced osteonecrosis was 57% on day 30 and 73% on day 45.
as §1

[7] = molecular target: α4β1 integrin (Homo sapiens, UniProt P05556+P13612); details: Liu 2006; Peng 2006; DeNardo 2009; cited from earlier work
[8] = test system: glucocorticoid-treated mice; experiment: Trabecular bone volume in glucocorticoid-treated mice; type: in vivo; details: GC 28 days then treatment; change from day 28 to 56, measured in vivo (FIG. 6 left)
Procedure: FIG. 6. Trabecular bone volume in glucocorticoid-treated mice. Mice were treated for 28 days with glucocorticoid (GC), then treated with either LLP2A-Ale, PTH, or LLP2A-Ale+PTH. The outcome measure was the change in trabecular bone mass from day 28 to 56, measured in vivo at the distal femur (left panel) and change in trabecular bone mass for the vertebral trabecular bone volume (right panel).
Changes in trabecular bone mass during the treatment period for the distal femur and vertebral trabecular bone volume were measured.

[9] = test system: glucocorticoid-treated mice; experiment: 56 day mouse model of glucocorticoid-induced osteonecrosis: femur blood vessel / vascular density by microCT; type: in vivo
Procedure: FIG. 2. Blood vessel density of femurs from glucocorticoid-treated mice. 4 month old male mice were treated glucocorticoid (“GC”) or placebo for 56 days. At day 28 a group of glucocorticoid-treated mice were treated with LLP2A-Ale or PTH for an additional 28 days.
FIG. 3. Vascular density of femurs from glucocorticoid-treated mice. 4 month old male mice were treated with glucocorticoid or placebo for 56 days. At day 28 a group of glucocorticoid-treated mice were treated with LLP2A-Ale or PTH for an additional 28 days. At day 56 animals were given a contrast agent and then sacrificed and then the animals femurs were decalcified and then scanned by microCT.
The efficacy of LLP2A-Ale was evaluated using a mouse model of glucocorticoid-induced osteonecrosis. 4-month-old male mice were treated for 56 days with glucocorticoids. At day 28, a group of mice was treated with either LLP2A-Ale or PTH for an additional 28 days. Blood vessel density of the femur was measured after sacrifice by microCT according to published methods. […] Vascular density of the femurs of glucocorticoid-treated mice subsequently treated with LLP2A-Ale or PTH was also assessed by giving the mice a contrast agent, then sacrificing the mice, decalcifying the femurs, and scanning the femurs by microCT. […] Without being bound to a particular theory, it is believed that LLP2A-Ale promotes increased vascularity by bringing MSCs to the bone that is turning over with osteonecrosis, which stimulates new blood vessel formation, which in turn is needed to stimulate new bone formation in the osteonecrotic bone.

α4β1 integrin, sequence (P13612 34-1032): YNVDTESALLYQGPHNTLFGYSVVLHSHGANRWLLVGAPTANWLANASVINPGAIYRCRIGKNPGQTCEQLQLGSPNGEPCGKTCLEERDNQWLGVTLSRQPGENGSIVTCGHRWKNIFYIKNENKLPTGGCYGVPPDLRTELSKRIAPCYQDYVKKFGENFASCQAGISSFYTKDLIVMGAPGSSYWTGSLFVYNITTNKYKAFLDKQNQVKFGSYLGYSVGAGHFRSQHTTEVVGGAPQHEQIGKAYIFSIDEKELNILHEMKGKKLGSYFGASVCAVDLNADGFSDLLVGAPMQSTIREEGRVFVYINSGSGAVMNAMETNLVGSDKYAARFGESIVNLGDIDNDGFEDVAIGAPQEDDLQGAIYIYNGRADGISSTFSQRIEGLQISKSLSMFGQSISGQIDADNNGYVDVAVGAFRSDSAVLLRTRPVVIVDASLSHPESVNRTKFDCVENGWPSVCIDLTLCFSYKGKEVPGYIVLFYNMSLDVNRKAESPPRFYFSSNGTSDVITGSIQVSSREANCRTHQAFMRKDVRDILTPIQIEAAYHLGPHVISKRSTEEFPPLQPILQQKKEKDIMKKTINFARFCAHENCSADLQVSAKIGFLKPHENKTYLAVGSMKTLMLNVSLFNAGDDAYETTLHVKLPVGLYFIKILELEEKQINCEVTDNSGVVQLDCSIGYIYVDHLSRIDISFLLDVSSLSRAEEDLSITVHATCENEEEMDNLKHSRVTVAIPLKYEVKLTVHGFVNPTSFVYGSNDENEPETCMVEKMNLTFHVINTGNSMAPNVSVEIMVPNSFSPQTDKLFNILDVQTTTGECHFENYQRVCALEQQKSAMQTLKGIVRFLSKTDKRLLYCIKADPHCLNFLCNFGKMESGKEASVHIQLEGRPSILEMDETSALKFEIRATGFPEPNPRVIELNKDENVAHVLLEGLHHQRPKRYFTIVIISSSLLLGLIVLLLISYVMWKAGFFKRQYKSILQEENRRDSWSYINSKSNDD
α4β1 integrin, sequence (P05556 21-798): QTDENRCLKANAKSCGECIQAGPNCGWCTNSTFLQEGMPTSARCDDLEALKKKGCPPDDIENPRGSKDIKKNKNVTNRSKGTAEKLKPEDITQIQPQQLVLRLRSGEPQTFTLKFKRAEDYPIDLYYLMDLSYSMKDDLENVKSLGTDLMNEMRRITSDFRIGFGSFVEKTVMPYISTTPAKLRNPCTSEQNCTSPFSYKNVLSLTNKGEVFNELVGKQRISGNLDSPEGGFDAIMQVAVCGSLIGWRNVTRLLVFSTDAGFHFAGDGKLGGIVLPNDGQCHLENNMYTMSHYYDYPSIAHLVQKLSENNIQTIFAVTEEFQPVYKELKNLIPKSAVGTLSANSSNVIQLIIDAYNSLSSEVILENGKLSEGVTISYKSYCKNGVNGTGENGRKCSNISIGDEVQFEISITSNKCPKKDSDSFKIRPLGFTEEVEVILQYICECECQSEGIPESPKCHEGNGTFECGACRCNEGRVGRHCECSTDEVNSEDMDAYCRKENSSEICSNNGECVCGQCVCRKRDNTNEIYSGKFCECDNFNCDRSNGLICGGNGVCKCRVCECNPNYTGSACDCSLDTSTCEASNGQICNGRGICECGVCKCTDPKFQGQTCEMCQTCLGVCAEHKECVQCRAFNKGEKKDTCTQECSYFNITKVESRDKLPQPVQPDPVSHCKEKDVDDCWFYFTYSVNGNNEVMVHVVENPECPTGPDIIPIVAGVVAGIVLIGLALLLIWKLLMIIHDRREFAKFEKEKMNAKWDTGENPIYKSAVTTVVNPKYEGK

Which “Staining intensity of CD31 and Endomucin expression” value ([1]; Dex vs LLP2A-Ale, hPTH (1-34) or placebo, day 30 and 45 (data not shown)) does the source give for `C[C@@H]1C[C@H]2[C@@H]3CCC4=CC(=O)C=C[C@]4(C)[C@@]3(F)[C@@H](O)C[C@]2(C)[C@@]1(O)C(=O)CO` [Dex, dexamethasone] here?
The value was “decreased the staining intensity”.

And the “Histological findings of osteonecrosis with dexamethasone alone” value [2]?
The value was “Evidence of osteonecrosis was present throughout the epiphyses of the distal femurs; also recorded: necrotic trabeculae characterized by large empty lacunae”.

What about the “Histological findings of osteonecrosis with dexamethasone alone” value ([2]; listed as dexamethasone) of the same molecule?
Its value is “most of the bone marrow space was occupied by fat”.

What about the “Samples with 10% or more empty lacunae” value [3] of the same molecule?
The value was 75%.

What about the Body weight [4] of the same molecule?
Its Body weight is “significantly lower”.

What about the Trabecular thickness ([5]; Dex vs placebo, day 30 and 45 (p<0.05)) of the same molecule?
Its Trabecular thickness is “significantly reduced”.

What about the Trabecular number ([5]; Dex, day 45 (p<0.05)) of the same molecule?
The Trabecular number was “significantly reduced”.

What about the “Incidence of glucocorticoid-induced osteonecrosis” value ([6]; day 30) of the same molecule?
Its value is 57%.

And the “Incidence of glucocorticoid-induced osteonecrosis” value ([6]; day 45)?
The value was 73%.

Which results are given for “hPTH (1-34): human PTH (1-34), 40 μg/kg five times a week in Example 3 (SVSEIQLMHNLGKHLNSMERVEWLRKKLQDVHNF; Parathyroid hormone; UniProt P01270 32-65, looked up, fragment)”?
Vascular integrity of the distal femur ([1]; 30 and 45 day study, conclusion): maintained the vascular integrity; Trabecular bone volume ([5]; day 30 and 45, Dex vs placebo, treated vs Dex (p<0.05)): higher bone volume; Trabecular separation ([5]; vs Dex group, day 30 and 45 (p<0.05)): lower trabecular separation; Prevalence/incidence of glucocorticoid-induced osteonecrosis lesions (in words) [6]: prevented incident GC-induced osteonecrosis lesions; also recorded: prevented glucocorticoid-induced osteonecrotic lesions; Prevalence/incidence of glucocorticoid-induced osteonecrosis lesions (in words) ([6]; listed as hPTH): reduced the incidence and severity of osteonecrosis

With `Cc1ccccc1NC(=O)Nc1ccc(CC(=O)N[C@@H](CCCCNC(=O)/C=C/c2cccnc2)C(=O)N[C@@H](CCCC(=O)O)C(=O)NC2(C(N)=O)CCCCC2)cc1` [LLP2A] as the molecule, how does the “Binding to α4β1 integrin (affinity and specificity in words)” value [7] read?
The value was “high-affinity, high-specificity”.

B1: PTH: parathyroid hormone, anabolic agent; given 20 ug/kg 5× a week in Example 1 (peptide, UniProt P01270 32-115, looked up)
Parathyroid hormone: SVSEIQLMHNLGKHLNSMERVEWLRKKLQDVHNFVALGAPLAPRDAGSQRPRKKEDNVLVESHEKSLGEADKADVNVLTKAKSQ
modifications: Parathyroid hormone
For B1, which “Change in trabecular bone mass/volume at the distal femur” value [8] is on record?
Its value is “increased the trabecular bone volume to the baseline/sham level”.

And the “Blood vessel density of the femur” value ([9]; 4 month old male mice, GC 56 days, LLP2A-Ale or PTH from day 28 for 28 days, microCT after sacrifice (FIG. 2))?
The value was “significantly different from all other groups”.

What about the “Vascular density of femurs” value ([9]; contrast agent at day 56, decalcified femurs scanned by microCT (FIG. 3), vs GC alone) of the same molecule?
Its value is “did not exhibit a significant change in vascular density; also recorded: did not significantly change vascular density”.

Reference: patent publication US12569506B2, “Methods of treating osteonecrosis with LLP2A-bisphosphonate compounds” (The Regents of the University of California, priority 2016, dated 2026)
